Data taken from the NIST ThermoML archive (doi:10.1016/j.jct.2014.10.001).
“And” between values parts separate entries of the source, which are not always exact repeats. Equal entries are not always repeated.

Experiment: xn = mol fraction of the nth substance listed
Conditions: Gas, Buoyancy - hydrostatic balance with magnetic suspension - one sinker

FCC(F)(F)F [1,1,1,2-tetrafluoroethane] + CCC
Conditions | mass density
258.14 K, 113.78 kPa, x1 = 0.5401 | 4.1262 kg/m3
258.14 K, 154.11 kPa, x1 = 0.5401 | 5.651 kg/m3
258.15 K, 190.72 kPa, x1 = 0.5401 | 7.0674 kg/m3
258.15 K, 242.95 kPa, x1 = 0.5401 | 9.1445 kg/m3
258.16 K, 154.01 kPa, x1 = 0.7989 | 6.8087 kg/m3
258.16 K, 168.96 kPa, x1 = 0.2391 | 4.7661 kg/m3
258.17 K, 103.24 kPa, x1 = 0.2391 | 2.8628 kg/m3
258.17 K, 106.9 kPa, x1 = 0.7989 | 4.6538 kg/m3
258.18 K, 197.88 kPa, x1 = 0.7989 | 8.8817 kg/m3
258.19 K, 252.34 kPa, x1 = 0.2391 | 7.2822 kg/m3
263.13 K, 101.57 kPa, x1 = 0.5401 | 3.5945 kg/m3
263.13 K, 101.58 kPa, x1 = 0.5401 | 3.5946 kg/m3
263.14 K, 134.16 kPa, x1 = 0.6201 | 5.0876 kg/m3
263.14 K, 166.53 kPa, x1 = 0.5401 | 5.9917 kg/m3
263.14 K, 183.78 kPa, x1 = 0.7989 | 8.0203 kg/m3
263.14 K, 220.07 kPa, x1 = 0.5401 | 8.0347 kg/m3
263.14 K, 225.37 kPa, x1 = 0.7989 | 9.9705 kg/m3
263.14 K, 281.67 kPa, x1 = 0.5401 | 10.4652 kg/m3
263.15 K, 99.9 kPa, x1 = 0.7989 | 4.2498 kg/m3
263.15 K, 102.04 kPa, x1 = 0.2391 | 2.7715 kg/m3
263.15 K, 145.63 kPa, x1 = 0.7989 | 6.2807 kg/m3
263.15 K, 194.24 kPa, x1 = 0.6201 | 7.4918 kg/m3
263.15 K, 259.7 kPa, x1 = 0.6201 | 10.2107 kg/m3
263.16 K, 203.74 kPa, x1 = 0.2391 | 5.6732 kg/m3
263.17 K, 305.05 kPa, x1 = 0.2391 | 8.7279 kg/m3
268.12 K, 231.64 kPa, x1 = 0.7989 | 10.0266 kg/m3
268.13 K, 104.95 kPa, x1 = 0.7989 | 4.3792 kg/m3
268.13 K, 150.69 kPa, x1 = 0.7989 | 6.3684 kg/m3
268.13 K, 213.45 kPa, x1 = 0.6201 | 8.092 kg/m3
268.14 K, 104.92 kPa, x1 = 0.5401 | 3.6381 kg/m3
268.14 K, 125.37 kPa, x1 = 0.6201 | 4.6466 kg/m3
268.14 K, 190.18 kPa, x1 = 0.7989 | 8.1303 kg/m3
268.14 K, 285.39 kPa, x1 = 0.7989 | 12.5661 kg/m3
268.14 K, 300.29 kPa, x1 = 0.6201 | 11.6624 kg/m3
268.15 K, 183.8 kPa, x1 = 0.5401 | 6.4973 kg/m3
268.15 K, 268.92 kPa, x1 = 0.5401 | 9.7174 kg/m3
268.16 K, 198.02 kPa, x1 = 0.2391 | 5.3921 kg/m3
268.16 K, 341.03 kPa, x1 = 0.5401 | 12.5709 kg/m3
268.17 K, 119.34 kPa, x1 = 0.2391 | 3.1919 kg/m3
268.17 K, 286.65 kPa, x1 = 0.2391 | 7.9728 kg/m3
268.17 K, 365.93 kPa, x1 = 0.2391 | 10.3898 kg/m3
273.1 K, 170.36 kPa, x1 = 0.5401 | 5.8806 kg/m3
273.1 K, 283.04 kPa, x1 = 0.6201 | 10.6873 kg/m3
273.1 K, 358.16 kPa, x1 = 0.6201 | 13.8005 kg/m3
273.1 K, 411.8 kPa, x1 = 0.5401 | 15.1107 kg/m3
273.11 K, 105.09 kPa, x1 = 0.5401 | 3.5743 kg/m3
273.11 K, 121.2 kPa, x1 = 0.6201 | 4.3969 kg/m3
273.11 K, 251.59 kPa, x1 = 0.5401 | 8.853 kg/m3
273.11 K, 262.93 kPa, x1 = 0.7989 | 11.2212 kg/m3
273.11 K, 323.14 kPa, x1 = 0.5401 | 11.5758 kg/m3
273.12 K, 100.04 kPa, x1 = 0.7989 | 4.0831 kg/m3
273.12 K, 122.4 kPa, x1 = 0.2391 | 3.2081 kg/m3
273.12 K, 206.06 kPa, x1 = 0.6201 | 7.6287 kg/m3
273.12 K, 451.8 kPa, x1 = 0.2391 | 12.8024 kg/m3
273.13 K, 144.28 kPa, x1 = 0.7989 | 5.9572 kg/m3
273.13 K, 204.71 kPa, x1 = 0.2391 | 5.4646 kg/m3
273.13 K, 216.26 kPa, x1 = 0.7989 | 9.1063 kg/m3
273.13 K, 288.63 kPa, x1 = 0.2391 | 7.853 kg/m3
273.13 K, 319.28 kPa, x1 = 0.7989 | 13.8595 kg/m3
273.13 K, 364.79 kPa, x1 = 0.2391 | 10.1086 kg/m3
278.12 K, 123.52 kPa, x1 = 0.6201 | 4.396 kg/m3
278.13 K, 236.83 kPa, x1 = 0.6201 | 8.6438 kg/m3
278.14 K, 337.13 kPa, x1 = 0.6201 | 12.6083 kg/m3
278.14 K, 433.01 kPa, x1 = 0.6201 | 16.603 kg/m3
278.15 K, 103.41 kPa, x1 = 0.7989 | 4.1428 kg/m3
278.15 K, 194.41 kPa, x1 = 0.5401 | 6.606 kg/m3
278.15 K, 286.8 kPa, x1 = 0.7989 | 12.0403 kg/m3
278.15 K, 289.3 kPa, x1 = 0.5401 | 10.0435 kg/m3
278.15 K, 381.08 kPa, x1 = 0.7989 | 16.4363 kg/m3 and 16.4338 kg/m3
278.15 K, 419.02 kPa, x1 = 0.5401 | 15.0163 kg/m3
278.15 K, 504.76 kPa, x1 = 0.5401 | 18.5053 kg/m3
278.16 K, 115.44 kPa, x1 = 0.5401 | 3.8575 kg/m3
278.16 K, 152.51 kPa, x1 = 0.7989 | 6.1813 kg/m3
